In ChEMBL document CHEMBL4004803, “Syntheses and antibacterial activity of soluble 9-bromo substituted indolizinoquinoline-5,12-dione derivatives” (Eur J Med Chem, 2017):
In brackets after ≈: the same amount, converted by molar mass.

Assays:
Escherichia coli = test: Antibacterial activity against Escherichia coli ATCC 25922 after 20 to 24 hrs by two-fold microdilution method; type: functional
Staphylococcus aureus [1] = test: Antibacterial activity against methicillin-resistant Staphylococcus aureus 215073 clinical isolate after 20 to 24 hrs by two-fold microdilution method; type: functional
Staphylococcus aureus [2] = test: Antibacterial activity against methicillin-resistant Staphylococcus aureus 212014 clinical isolate after 20 to 24 hrs by two-fold microdilution method; type: functional
Staphylococcus aureus [3] = test: Antibacterial activity against methicillin-resistant Staphylococcus aureus 305026 clinical isolate after 20 to 24 hrs by two-fold microdilution method; type: functional
Staphylococcus aureus [4] = test: Antibacterial activity against methicillin-resistant Staphylococcus aureus 214026 clinical isolate after 20 to 24 hrs by two-fold microdilution method; type: functional
Staphylococcus aureus [5] = test: Antibacterial activity against methicillin-resistant Staphylococcus aureus 216054 clinical isolate after 20 to 24 hrs by two-fold microdilution method; type: functional
Staphylococcus aureus [6] = test: Antibacterial activity against methicillin-resistant Staphylococcus aureus 1029025 clinical isolate after 20 to 24 hrs by two-fold microdilution method; type: functional
Staphylococcus aureus [7] = test: Antibacterial activity against methicillin-resistant Staphylococcus aureus 112430 clinical isolate after 20 to 24 hrs by two-fold microdilution method; type: functional
Staphylococcus aureus [8] = test: Antibacterial activity against methicillin-resistant Staphylococcus aureus 110910-2 clinical isolate after 20 to 24 hrs by two-fold microdilution method; type: functional
Staphylococcus aureus [9] = test: Antibacterial activity against methicillin-resistant Staphylococcus aureus 110414 clinical isolate after 20 to 24 hrs by two-fold microdilution method; type: functional
Staphylococcus aureus [10] = test: Antibacterial activity against methicillin-resistant Staphylococcus aureus 110325 clinical isolate after 20 to 24 hrs by two-fold microdilution method; type: functional
Staphylococcus aureus [11] = test: Antibacterial activity against methicillin-resistant Staphylococcus aureus 110432 clinical isolate after 20 to 24 hrs by two-fold microdilution method; type: functional
Staphylococcus aureus [12] = test: Antibacterial activity against methicillin-resistant Staphylococcus aureus GLH14 clinical isolate after 20 to 24 hrs by two-fold microdilution method; type: functional
Staphylococcus aureus [13] = test: Antibacterial activity against methicillin-resistant Staphylococcus aureus 1215028 clinical isolate after 20 to 24 hrs by two-fold microdilution method; type: functional
Staphylococcus aureus [14] = test: Antibacterial activity against methicillin-resistant Staphylococcus aureus 122710-2 clinical isolate after 20 to 24 hrs by two-fold microdilution method; type: functional
Staphylococcus aureus [15] = test: Antibacterial activity against methicillin-resistant Staphylococcus aureus 122820-2 clinical isolate after 20 to 24 hrs by two-fold microdilution method; type: functional
Staphylococcus aureus [16] = test: Antibacterial activity against methicillin-resistant Staphylococcus aureus 11703 clinical isolate after 20 to 24 hrs by two-fold microdilution method; type: functional
Staphylococcus aureus [17] = test: Antibacterial activity against methicillin-resistant Staphylococcus aureus 130031 clinical isolate after 20 to 24 hrs by two-fold microdilution method; type: functional
Staphylococcus aureus [18] = test: Antibacterial activity against methicillin-resistant Staphylococcus aureus 20534 clinical isolate after 20 to 24 hrs by two-fold microdilution method; type: functional
Staphylococcus aureus [19] = test: Antibacterial activity against methicillin-resistant Staphylococcus aureus 221014 clinical isolate after 20 to 24 hrs by two-fold microdilution method; type: functional
Staphylococcus aureus [20] = test: Antibacterial activity against methicillin-resistant Staphylococcus aureus 224001 clinical isolate after 20 to 24 hrs by two-fold microdilution method; type: functional
Staphylococcus aureus [21] = test: Antibacterial activity against methicillin-resistant Staphylococcus aureus 3250299 clinical isolate after 20 to 24 hrs by two-fold microdilution method; type: functional
Staphylococcus aureus [22] = test: Antibacterial activity against methicillin-resistant Staphylococcus aureus 414244 clinical isolate after 20 to 24 hrs by two-fold microdilution method; type: functional
Staphylococcus aureus [23] = test: Antibacterial activity against methicillin-resistant Staphylococcus aureus 625032 clinical isolate after 20 to 24 hrs by two-fold microdilution method; type: functional
Staphylococcus aureus [24] = test: Antibacterial activity against methicillin-resistant Staphylococcus aureus 518036 clinical isolate after 20 to 24 hrs by two-fold microdilution method; type: functional
Staphylococcus aureus [25] = test: Antibacterial activity against methicillin-resistant Staphylococcus aureus 519028 clinical isolate after 20 to 24 hrs by two-fold microdilution method; type: functional
Staphylococcus aureus [26] = test: Antibacterial activity against methicillin-resistant Staphylococcus aureus 519030 clinical isolate after 20 to 24 hrs by two-fold microdilution method; type: functional
Staphylococcus aureus [27] = test: Antibacterial activity against methicillin-resistant Staphylococcus aureus 523005 clinical isolate after 20 to 24 hrs by two-fold microdilution method; type: functional
Staphylococcus aureus [28] = test: Antibacterial activity against methicillin-resistant Staphylococcus aureus 531026 clinical isolate after 20 to 24 hrs by two-fold microdilution method; type: functional
Staphylococcus aureus [29] = test: Antibacterial activity against methicillin-resistant Staphylococcus aureus 531220 clinical isolate after 20 to 24 hrs by two-fold microdilution method; type: functional
Staphylococcus aureus [30] = test: Antibacterial activity against methicillin-resistant Staphylococcus aureus 921026 clinical isolate after 20 to 24 hrs by two-fold microdilution method; type: functional
Staphylococcus aureus [31] = test: Antibacterial activity against methicillin-resistant Staphylococcus aureus 503025 clinical isolate after 20 to 24 hrs by two-fold microdilution method; type: functional
Staphylococcus aureus [32] = test: Antibacterial activity against methicillin-resistant Staphylococcus aureus 829034 clinical isolate after 20 to 24 hrs by two-fold microdilution method; type: functional
Staphylococcus aureus [33] = test: Antibacterial activity against methicillin-resistant Staphylococcus aureus 1012039 clinical isolate after 20 to 24 hrs by two-fold microdilution method; type: functional
Staphylococcus aureus [34] = test: Antibacterial activity against methicillin-resistant Staphylococcus aureus 1026021 clinical isolate after 20 to 24 hrs by two-fold microdilution method; type: functional
Staphylococcus aureus [35] = test: Antibacterial activity against methicillin-resistant Staphylococcus aureus 1025022 clinical isolate after 20 to 24 hrs by two-fold microdilution method; type: functional
Staphylococcus aureus [36] = test: Antibacterial activity against methicillin-resistant Staphylococcus aureus 1211026 clinical isolate after 20 to 24 hrs by two-fold microdilution method; type: functional
Staphylococcus aureus [37] = test: Antibacterial activity against methicillin-resistant Staphylococcus aureus 1101016 clinical isolate after 20 to 24 hrs by two-fold microdilution method; type: functional
Staphylococcus aureus [38] = test: Antibacterial activity against methicillin-resistant Staphylococcus aureus 1107027 clinical isolate after 20 to 24 hrs by two-fold microdilution method; type: functional
Staphylococcus aureus [39] = test: Antibacterial activity against methicillin-resistant Staphylococcus aureus 1106003 clinical isolate after 20 to 24 hrs by two-fold microdilution method; type: functional
Staphylococcus aureus [40] = test: Antibacterial activity against methicillin-resistant Staphylococcus aureus 1128040 clinical isolate after 20 to 24 hrs by two-fold microdilution method; type: functional
Staphylococcus aureus [41] = test: Antibacterial activity against methicillin-resistant Staphylococcus aureus 1207026 clinical isolate after 20 to 24 hrs by two-fold microdilution method; type: functional
Staphylococcus aureus [42] = test: Antibacterial activity against methicillin-resistant Staphylococcus aureus 1212057-1 clinical isolate after 20 to 24 hrs by two-fold microdilution method; type: functional
Staphylococcus aureus [43] = test: Antibacterial activity against methicillin-resistant Staphylococcus aureus 1216052 clinical isolate after 20 to 24 hrs by two-fold microdilution method; type: functional
Staphylococcus aureus [44] = test: Antibacterial activity against methicillin-resistant Staphylococcus aureus 109244 clinical isolate after 20 to 24 hrs by two-fold microdilution method; type: functional
Staphylococcus aureus [45] = test: Antibacterial activity against methicillin-resistant Staphylococcus aureus 121026 clinical isolate after 20 to 24 hrs by two-fold microdilution method; type: functional
[46] = Solubility of the compound in water at 25 degC measured after shaking for 4 hrs by UV method; type: physicochemical; details: water

## O=C1c2cccnc2C(=O)c2c1c(C(=O)OCCCCCCN1CCCCC1)c1ccc(Br)cn21
Escherichia coli
  MIC: 2 µg/mL (≈ 3.71 µM)
Staphylococcus aureus [1]
  MIC: 0.016 µg/mL (≈ 0.0297 µM)
Staphylococcus aureus [2]
  MIC: ≤ 0.0078 µg/mL
Staphylococcus aureus [3]
  MIC: ≤ 0.0078 µg/mL
Staphylococcus aureus [4]
  MIC: ≤ 0.0078 µg/mL
Staphylococcus aureus [5]
  MIC: ≤ 0.0078 µg/mL
Staphylococcus aureus [6]
  MIC: 0.063 µg/mL (≈ 0.117 µM)
Staphylococcus aureus [7]
  MIC: 0.063 µg/mL (≈ 0.117 µM)
Staphylococcus aureus [8]
  MIC: 0.016 µg/mL (≈ 0.0297 µM)
Staphylococcus aureus [9]
  MIC: 0.031 µg/mL (≈ 0.0576 µM)
Staphylococcus aureus [10]
  MIC: 0.031 µg/mL (≈ 0.0576 µM)
Staphylococcus aureus [11]
  MIC: 0.063 µg/mL (≈ 0.117 µM)
Staphylococcus aureus [12]
  MIC: 0.063 µg/mL (≈ 0.117 µM)
Staphylococcus aureus [13]
  MIC: 0.063 µg/mL (≈ 0.117 µM)
Staphylococcus aureus [14]
  MIC: 0.031 µg/mL (≈ 0.0576 µM)
Staphylococcus aureus [15]
  MIC: 0.063 µg/mL (≈ 0.117 µM)
Staphylococcus aureus [16]
  MIC: 0.063 µg/mL (≈ 0.117 µM)
Staphylococcus aureus [17]
  MIC: 0.125 µg/mL (≈ 0.232 µM)
Staphylococcus aureus [18]
  MIC: 0.125 µg/mL (≈ 0.232 µM)
Staphylococcus aureus [19]
  MIC: 0.125 µg/mL (≈ 0.232 µM)
Staphylococcus aureus [20]
  MIC: 0.125 µg/mL (≈ 0.232 µM)
Staphylococcus aureus [21]
  MIC: 0.063 µg/mL (≈ 0.117 µM)
Staphylococcus aureus [22]
  MIC: 0.063 µg/mL (≈ 0.117 µM)
Staphylococcus aureus [23]
  MIC: 0.25 µg/mL (≈ 0.464 µM)
Staphylococcus aureus [24]
  MIC: 0.125 µg/mL (≈ 0.232 µM)
Staphylococcus aureus [25]
  MIC: 0.125 µg/mL (≈ 0.232 µM)
Staphylococcus aureus [26]
  MIC: 0.063 µg/mL (≈ 0.117 µM)
Staphylococcus aureus [27]
  MIC: 0.125 µg/mL (≈ 0.232 µM)
Staphylococcus aureus [28]
  MIC: 0.063 µg/mL (≈ 0.117 µM)
Staphylococcus aureus [29]
  MIC: 0.25 µg/mL (≈ 0.464 µM)
Staphylococcus aureus [30]
  MIC: 0.063 µg/mL (≈ 0.117 µM)
Staphylococcus aureus [31]
  MIC: 0.125 µg/mL (≈ 0.232 µM)
Staphylococcus aureus [32]
  MIC: 0.25 µg/mL (≈ 0.464 µM)
Staphylococcus aureus [33]
  MIC: 0.063 µg/mL (≈ 0.117 µM)
Staphylococcus aureus [34]
  MIC: 16 µg/mL (≈ 29.7 µM)
Staphylococcus aureus [35]
  MIC: 0.063 µg/mL (≈ 0.117 µM)
Staphylococcus aureus [36]
  MIC: 0.031 µg/mL (≈ 0.0576 µM)
Staphylococcus aureus [37]
  MIC: 0.063 µg/mL (≈ 0.117 µM)
Staphylococcus aureus [38]
  MIC: 0.063 µg/mL (≈ 0.117 µM)
Staphylococcus aureus [39]
  MIC: 16 µg/mL (≈ 29.7 µM)
Staphylococcus aureus [40]
  MIC: 0.063 µg/mL (≈ 0.117 µM)
Staphylococcus aureus [41]
  MIC: 0.063 µg/mL (≈ 0.117 µM)
Staphylococcus aureus [42]
  MIC: 0.016 µg/mL (≈ 0.0297 µM)
Staphylococcus aureus [43]
  MIC: > 16 µg/mL
Staphylococcus aureus [44]
  MIC: 0.031 µg/mL (≈ 0.0576 µM)
Staphylococcus aureus [45]
  MIC: 0.031 µg/mL (≈ 0.0576 µM)
[46]
  solubility thermodynamic at 4 h: 1980 µg/mL (≈ 3680 µM)
